Source: EP2773641B1, “BIARYL ETHER SULFONAMIDES AND THEIR USE AS THERAPEUTIC AGENTS” (Xenon Pharmaceuticals Inc., priority 2011, dated 2013)
Read-outs that look alike come from different tables or passages of the source.

Assays:
[1] = target: T1, Nav1.7 (Homo sapiens, UniProt Q15858); assay: Patch voltage clamp electrophysiology assay, block of the inactivated state of Nav1.7; format: cell-based; settings: affinity for the inactivated state, HEK-293 cells stably expressing human Nav1.7 with β1 subunit, held at -60 mV
T1 construct: permanently transfected with an expression vector containing the full-length cDNA coding for the desired human sodium channel α-subunit; expressed in transfected cells
Protocol: (§1) The following patch voltage clamp electrophysiology studies were performed on representative compounds of the invention using human embryonic kidney cells (HEK), permanently transfected with an expression vector containing the full-length cDNA coding for the desired human sodium channel α-subunit, grown in culture media containing 10% FBS, 1% PSG, and 0.5 mg/mL G418 at 37 °C with 5% CO2. […] Nav1.7 and Nav1.5 cDNAs (NM_002977 and AC137587; SCN5A, respectively) were stably expressed in HEK-293 cells. The β1 subunit was coexpressed only in the Nav1.7 cell line.
Sodium currents were measured using the patch clamp technique in the whole-cell configuration using either a PatchXpress automated voltage clamp or manually using an Axopatch 200B (Axon Instruments) or Model 2400 (A-M systems) amplifier. […] The pipette was filled with a solution comprised of: 5 mM NaCl, 10 mM CsCl, 120 mM CsF, 0.1 mM CaCl2, 2 mM MgCl2, 10 mM HEPES, 10 mM EGTA; and adjusted to pH 7.2 with CsOH. The external solution had the following composition: 140 mM NaCl, 5 mM KCI, 2 mM CaCl2, 1 mM MgCl2, 10 mM HEPES; and adjusted to pH 7.4 with NaOH. In some studies, the external sodium was reduced by equimolar replacement with choline. Osmolarity in the CsF internal and NaCl external solutions was adjusted to 300 mOsm/kg and 310 mOsm/kg with glucose, respectively. All recordings were performed at ambient temperature in a bath chamber with a volume of 150 µL. Control sodium currents were measured in 0.5% DMSO. Controls and representative compounds of the invention were applied to the recording chamber through a 4-pinch or 8-pinch valve bath perfusion system manufactured by ALA Scientific Instruments.
Series resistance compensation was applied (60-80%). […] All statistics in this study are given as mean ± SD.
The membrane potential was maintained at a voltage where inactivation of the channel is complete (which was -60 mV for both Nav1.7 and Nav1.5). The voltage is then stepped back to a very negative (Vhold = -150mV) voltage for 20 ms and then a test pulse is applied to quantify the compound block. […] The percent decrease in sodium current following wash-on of compound was taken as the percent block of sodium channels.
The Example numbers provided in Table 1 and Table 2 correspond to the Examples herein.

[2] = target: T2, Nav1.5 (Homo sapiens, UniProt Q14524); assay: Patch voltage clamp electrophysiology assay, block of the inactivated state of Nav1.5; format: cell-based; settings: IC50 class; affinity for the inactivated state; HEK-293 cells stably expressing human Nav1.5; held at -60 mV
T2 construct: permanently transfected with an expression vector containing the full-length cDNA coding for the desired human sodium channel α-subunit; expressed in transfected cells
Protocol: Patch voltage clamp electrophysiology allows for the direct measurement and quantification of block of voltage-gated sodium channels (Nav's), and allows the determination of the time- and voltage-dependence of block which has been interpreted as differential binding to the resting, open, and inactivated states of the sodium channel (Hille, B., Journal of General Physiology (1977), 69: 497-515).
as §1
Sodium currents were measured using the patch clamp technique in the whole-cell configuration using either a PatchXpress automated voltage clamp or manually using an Axopatch 200B (Axon Instruments) or Model 2400 (A-M systems) amplifier. The manual voltage clamp protocol was as follows: Borosilicate glass micropipettes were fire-polished to a tip diameter yielding a resistance of 2-4 Mohms in the working solutions. The pipette was filled with a solution comprised of: 5 mM NaCl, 10 mM CsCl, 120 mM CsF, 0.1 mM CaCl2, 2 mM MgCl2, 10 mM HEPES, 10 mM EGTA; and adjusted to pH 7.2 with CsOH. The external solution had the following composition: 140 mM NaCl, 5 mM KCI, 2 mM CaCl2, 1 mM MgCl2, 10 mM HEPES; and adjusted to pH 7.4 with NaOH. In some studies, the external sodium was reduced by equimolar replacement with choline. Osmolarity in the CsF internal and NaCl external solutions was adjusted to 300 mOsm/kg and 310 mOsm/kg with glucose, respectively. All recordings were performed at ambient temperature in a bath chamber with a volume of 150 µL. Control sodium currents were measured in 0.5% DMSO. Controls and representative compounds of the invention were applied to the recording chamber through a 4-pinch or 8-pinch valve bath perfusion system manufactured by ALA Scientific Instruments.
Currents were recorded at 40 kHz sampling frequency, filtered at […], and stored using a Digidata-1322A analogue/digital interface with the pClamp software (Axon Instruments). Series resistance compensation was applied (60-80%). […] All statistics in this study are given as mean ± SD.
The membrane potential was maintained at a voltage where inactivation of the channel is complete (which was -60 mV for both Nav1.7 and Nav1.5). The voltage is then stepped back to a very negative (Vhold = -150mV) voltage for 20 ms and then a test pulse is applied to quantify the compound block. The 20 ms brief repolarization was long enough for compound-free channels to completely recover from fast inactivation, but the compound-bound channels recovered more slowly such that negligible recovery could occur during this interval. The percent decrease in sodium current following wash-on of compound was taken as the percent block of sodium channels.
The Example numbers provided in Table 1 and Table 2 correspond to the Examples herein. TABLE 1: Inhibition of Nav1.7

T1 sequence (Q15858 1-1977 isoform Q15858-3): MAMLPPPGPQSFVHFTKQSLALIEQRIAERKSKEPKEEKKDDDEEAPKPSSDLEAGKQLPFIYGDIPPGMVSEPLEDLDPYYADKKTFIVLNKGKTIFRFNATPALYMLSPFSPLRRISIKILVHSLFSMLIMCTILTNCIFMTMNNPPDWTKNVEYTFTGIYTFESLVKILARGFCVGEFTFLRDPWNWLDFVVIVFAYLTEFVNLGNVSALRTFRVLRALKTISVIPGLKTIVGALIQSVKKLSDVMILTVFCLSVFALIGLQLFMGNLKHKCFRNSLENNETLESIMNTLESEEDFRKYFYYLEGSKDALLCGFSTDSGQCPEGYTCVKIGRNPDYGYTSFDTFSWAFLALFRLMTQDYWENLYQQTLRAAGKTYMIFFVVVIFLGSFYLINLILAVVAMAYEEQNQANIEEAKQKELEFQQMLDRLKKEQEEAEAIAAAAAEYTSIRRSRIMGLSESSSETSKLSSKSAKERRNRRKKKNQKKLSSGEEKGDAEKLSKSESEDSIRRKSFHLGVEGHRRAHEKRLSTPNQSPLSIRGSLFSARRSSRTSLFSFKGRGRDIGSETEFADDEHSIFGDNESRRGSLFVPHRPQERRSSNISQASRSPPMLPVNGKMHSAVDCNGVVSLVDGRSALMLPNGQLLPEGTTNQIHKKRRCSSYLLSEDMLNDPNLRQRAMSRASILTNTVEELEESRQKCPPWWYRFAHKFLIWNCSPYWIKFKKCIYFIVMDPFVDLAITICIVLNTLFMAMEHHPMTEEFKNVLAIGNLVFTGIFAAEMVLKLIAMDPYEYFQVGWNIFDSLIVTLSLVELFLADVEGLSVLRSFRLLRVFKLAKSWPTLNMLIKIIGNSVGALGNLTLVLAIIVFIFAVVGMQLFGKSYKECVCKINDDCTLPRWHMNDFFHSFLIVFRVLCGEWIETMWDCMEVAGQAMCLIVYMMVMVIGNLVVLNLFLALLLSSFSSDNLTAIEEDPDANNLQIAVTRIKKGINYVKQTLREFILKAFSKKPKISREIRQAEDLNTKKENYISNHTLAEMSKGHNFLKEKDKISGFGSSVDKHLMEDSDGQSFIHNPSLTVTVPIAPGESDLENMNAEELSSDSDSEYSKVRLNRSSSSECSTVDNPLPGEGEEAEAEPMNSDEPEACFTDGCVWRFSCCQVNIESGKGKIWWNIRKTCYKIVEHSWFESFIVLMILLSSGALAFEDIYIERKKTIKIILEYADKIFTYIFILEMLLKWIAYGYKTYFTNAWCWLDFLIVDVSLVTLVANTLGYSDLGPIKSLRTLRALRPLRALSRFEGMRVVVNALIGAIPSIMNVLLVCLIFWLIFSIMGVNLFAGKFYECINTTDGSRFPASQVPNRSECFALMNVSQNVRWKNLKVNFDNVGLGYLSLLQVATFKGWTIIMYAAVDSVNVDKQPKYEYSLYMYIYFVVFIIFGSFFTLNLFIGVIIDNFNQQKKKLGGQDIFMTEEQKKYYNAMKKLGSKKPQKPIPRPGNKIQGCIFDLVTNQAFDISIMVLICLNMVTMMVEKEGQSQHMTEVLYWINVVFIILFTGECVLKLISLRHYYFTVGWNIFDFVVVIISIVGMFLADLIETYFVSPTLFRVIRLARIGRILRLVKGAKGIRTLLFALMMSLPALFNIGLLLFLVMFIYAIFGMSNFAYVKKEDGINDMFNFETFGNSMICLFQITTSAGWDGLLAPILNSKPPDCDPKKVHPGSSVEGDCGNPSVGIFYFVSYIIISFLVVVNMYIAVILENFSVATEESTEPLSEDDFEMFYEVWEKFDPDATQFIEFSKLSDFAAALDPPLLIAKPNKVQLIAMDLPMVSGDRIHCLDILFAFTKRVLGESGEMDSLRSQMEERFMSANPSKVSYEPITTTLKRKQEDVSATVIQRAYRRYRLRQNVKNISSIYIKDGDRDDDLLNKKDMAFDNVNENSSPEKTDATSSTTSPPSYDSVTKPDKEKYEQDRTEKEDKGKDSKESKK
T1 sequence (Q07699 19-218 partner): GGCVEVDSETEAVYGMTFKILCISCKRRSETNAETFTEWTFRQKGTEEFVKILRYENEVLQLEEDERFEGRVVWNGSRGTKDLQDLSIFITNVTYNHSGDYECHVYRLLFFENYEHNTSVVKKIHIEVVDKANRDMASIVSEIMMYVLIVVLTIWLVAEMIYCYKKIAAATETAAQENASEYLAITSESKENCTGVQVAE
T2 sequence (Q14524 whole entry): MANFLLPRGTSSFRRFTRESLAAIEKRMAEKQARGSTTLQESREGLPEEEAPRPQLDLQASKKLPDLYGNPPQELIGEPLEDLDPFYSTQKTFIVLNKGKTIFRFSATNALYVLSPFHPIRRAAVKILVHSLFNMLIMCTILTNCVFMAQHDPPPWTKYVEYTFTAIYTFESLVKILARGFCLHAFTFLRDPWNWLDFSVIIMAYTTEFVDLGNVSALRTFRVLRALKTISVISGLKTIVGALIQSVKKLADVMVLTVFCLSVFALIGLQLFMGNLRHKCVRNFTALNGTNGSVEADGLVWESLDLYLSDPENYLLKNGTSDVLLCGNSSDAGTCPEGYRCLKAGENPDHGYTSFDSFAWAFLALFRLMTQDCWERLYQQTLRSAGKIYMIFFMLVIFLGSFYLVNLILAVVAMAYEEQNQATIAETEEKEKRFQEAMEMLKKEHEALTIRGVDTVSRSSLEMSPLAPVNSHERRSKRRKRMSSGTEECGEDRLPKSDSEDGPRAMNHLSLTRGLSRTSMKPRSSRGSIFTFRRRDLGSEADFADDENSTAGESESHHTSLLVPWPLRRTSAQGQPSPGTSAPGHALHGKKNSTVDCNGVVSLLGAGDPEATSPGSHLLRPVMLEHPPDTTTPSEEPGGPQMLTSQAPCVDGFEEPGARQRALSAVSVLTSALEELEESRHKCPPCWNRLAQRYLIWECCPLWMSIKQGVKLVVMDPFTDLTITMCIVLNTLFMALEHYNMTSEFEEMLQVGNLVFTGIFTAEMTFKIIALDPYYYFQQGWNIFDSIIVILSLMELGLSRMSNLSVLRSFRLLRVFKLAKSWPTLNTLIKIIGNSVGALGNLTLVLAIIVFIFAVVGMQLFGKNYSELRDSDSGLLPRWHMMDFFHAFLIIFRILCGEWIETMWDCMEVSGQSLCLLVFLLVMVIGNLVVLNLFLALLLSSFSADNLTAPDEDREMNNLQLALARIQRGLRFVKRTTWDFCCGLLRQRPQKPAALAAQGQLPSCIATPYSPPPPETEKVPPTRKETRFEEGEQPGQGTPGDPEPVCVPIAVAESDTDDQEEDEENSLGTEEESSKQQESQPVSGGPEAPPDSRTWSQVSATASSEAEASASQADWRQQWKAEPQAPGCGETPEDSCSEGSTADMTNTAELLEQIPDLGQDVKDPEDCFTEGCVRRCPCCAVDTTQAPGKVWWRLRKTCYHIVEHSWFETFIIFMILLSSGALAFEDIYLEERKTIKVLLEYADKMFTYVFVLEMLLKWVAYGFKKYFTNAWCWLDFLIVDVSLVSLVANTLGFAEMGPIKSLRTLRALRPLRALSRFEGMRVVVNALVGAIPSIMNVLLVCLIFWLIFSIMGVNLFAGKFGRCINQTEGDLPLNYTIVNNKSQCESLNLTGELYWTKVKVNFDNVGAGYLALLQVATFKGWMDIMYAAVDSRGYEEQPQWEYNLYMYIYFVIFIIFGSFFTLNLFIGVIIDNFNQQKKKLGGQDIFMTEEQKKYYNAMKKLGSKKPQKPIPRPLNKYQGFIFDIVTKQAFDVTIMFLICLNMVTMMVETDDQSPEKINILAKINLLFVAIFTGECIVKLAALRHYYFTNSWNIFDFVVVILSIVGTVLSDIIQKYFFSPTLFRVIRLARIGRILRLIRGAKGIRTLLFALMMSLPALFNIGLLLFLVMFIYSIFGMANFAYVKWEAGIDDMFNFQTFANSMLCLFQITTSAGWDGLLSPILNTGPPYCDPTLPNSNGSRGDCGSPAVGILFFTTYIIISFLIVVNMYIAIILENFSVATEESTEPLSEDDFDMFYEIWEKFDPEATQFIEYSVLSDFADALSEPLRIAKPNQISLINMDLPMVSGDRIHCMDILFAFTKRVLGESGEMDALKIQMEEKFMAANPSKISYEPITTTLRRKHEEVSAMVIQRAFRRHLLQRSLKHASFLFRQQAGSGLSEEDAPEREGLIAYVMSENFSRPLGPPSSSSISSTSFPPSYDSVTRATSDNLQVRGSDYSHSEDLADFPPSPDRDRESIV

SMILES | IC50 ([1]; IC50 class, read-out: Nav1.7) [nM] | IC50 ([1]; read-out: Nav1.7 IC50) [nM] | IC50 [2] [nM]
O=S(=O)(Nc1ncns1)c1cc(F)c(Oc2ccc(Cl)cc2-c2ccnc3nccn23)cc1F [Example 31, 4-(4-chloro-2-(imidazo[1,2-a]pyrimidin-5-yl)phenoxy)-2,5-difluoro-N-(1,2,4-thiadiazol-5-yl)benzenesulfonamide] |  | 8 | > 10000
Nc1nc2cc(-c3cc(Cl)ccc3Oc3cc(F)c(S(=O)(=O)Nc4ncns4)cc3F)ccc2[nH]1 [Example 38, 4-(2-(2-amino-1H-benzo[d]imidazol-5-yl)-4-chlorophenoxy)-2,5-difluoro-N-(1,2,4-thiadiazol-5-yl)benzenesulfonamide] |  | 0.3 | > 10000
O=S(=O)(Nc1ncns1)c1cc(F)c(Oc2ccc(Cl)cc2-c2cccc3nccn23)cc1F [Example 30, 4-(4-chloro-2-(imidazo[1,2-a]pyridin-5-yl)phenoxy)-2,5-difluoro-N-(1,2,4-thiadiazol-5-yl)benzenesulfonamide] |  | 13.4 | > 10000
O=S(=O)(Nc1ncns1)c1cc(F)c(Oc2ccc(Cl)cc2-c2ncc3cnccn23)cc1F [Example 36, 4-(4-chloro-2-(imidazo[1,5-a]pyrazin-3-yl)phenoxy)-2,5-difluoro-N-(1,2,4-thiadiazol-5-yl)benzenesulfonamide] |  | 2310 | 

The next lines start with results.

IC50 ([1]; IC50 class, read-out: Nav1.7) [nM] | IC50 ([1]; read-out: Nav1.7 IC50) [nM] | SMILES | IC50 [2] [nM]
100 to 1000 | 67.8 | CN(c1ncns1)S(=O)(=O)c1cc(F)c(Oc2ccc(Cl)cc2-c2ccc3[nH]c(N)nc3c2)cc1F [Example 41, 4-(2-(2-amino-1H-benzo[d]imidazol-5-yl)-4-chlorophenoxy)-2,5-difluoro-N-methyl-N-(1,2,4-thiadiazol-5-yl)benzenesulfonamide] | 1000 to 10000
 | 0.6 | Nc1noc2ccc(-c3cc(Cl)ccc3Oc3cc(F)c(S(=O)(=O)Nc4ncns4)cc3F)cc12 [Example 44, 4-(2-(3-aminobenzo[d]isoxazol-5-yl)-4-chlorophenoxy)-2,5-difluoro-N-(1,2,4-thiadiazol-5-yl)benzenesulfonamide] | 1000 to 10000
 | 0.8 | Nc1nc2ccc(-c3cc(Cl)ccc3Oc3cc(F)c(S(=O)(=O)Nc4ncns4)cc3F)cc2o1 [Example 57, 4-(2-(2-aminobenzo[d]oxazol-6-yl)-4-chlorophenoxy)-2,5-difluoro-N-(1,2,4-thiadiazol-5-yl)benzenesulfonamide] | 
 | 1.7 | O=S(=O)(Nc1ncns1)c1cc(F)c(Oc2ccc(Cl)cc2-c2ccc3[nH]cnc3c2)cc1F [Example 73, 4-(2-(1H-benzo[d]imidazol-5-yl)-4-chlorophenoxy)-2,5-difluoro-N-(1,2,4-thiadiazol-5-yl)benzenesulfonamide] | 
